Test results from ChEMBL document CHEMBL5331129, “Discovery of NAFLD-Improving Agents by Promoting the Degradation of Keap1” (J Med Chem, 2023).
The source made the active and inactive calls. The rule behind the calls is not given here.

Key:
[1] = tested on: Mus musculus; assay: Antioxidant activity against MCD diet-induced oxidative stress in C57Bl/6 mouse model of NAFLD assessed as increase in CAT level in liver at 0.5 to 2 mg/kg,ip administrated for 4 weeks; assay type: functional, organism-based; conditions: dose 0.5-2 mg/kg
[2] = Toxicity in C57BL/6 mouse assessed as histopathological change in liver at 2 mg/kg,ip qd administrated for 4 weeks by hematoxylin and eosin staining based assay; assay type: organism-based; conditions: in vivo, 672 h
[3] = tested on: AML12; assay: Antioxidant activity against free fatty acid induced oxidative stress in mouse AML12 cells assessed as upregulation of NQO1 protein expression level at 0.125 to 0.5 uM incubated for 24 hrs by immunoblot analysis; assay type: functional, cell-based; conditions: dose 0.125-0.5 µM
[4] = tested on: Mus musculus; assay: Antioxidant activity against MCD diet-induced oxidative stress in C57Bl/6 mouse model of NAFLD assessed as reduction of serum TG level at 0.5 to 2 mg/kg,ip administrated for 4 weeks; assay type: functional, organism-based; conditions: dose 0.5-2 mg/kg
[5] = Acute toxicity in zebrafish at < 5 uM observed at 48 hrs post fertilization; design: species or system Danio rerio; conditions: in vivo
[6] = tested on: Mus musculus; assay: Antioxidant activity against MCD diet-induced oxidative stress in C57Bl/6 mouse model of NAFLD assessed as reduction of serum AST level at 0.5 to 2 mg/kg,ip administrated for 4 weeks; assay type: functional, organism-based; conditions: dose 0.5-2 mg/kg
[7] = tested on: Mus musculus; assay: Antioxidant activity against MCD diet-induced oxidative stress in C57Bl/6 mouse model of NAFLD assessed as upregulation of liver Nrf2 protein expression level at 0.5 to 2 mg/kg,ip administrated for 4 weeks by immunoblot analysis; assay type: functional, organism-based; conditions: dose 0.5-2 mg/kg
[8] = tested on: AML12; assay: Antioxidant activity against free fatty acid induced oxidative stress in mouse AML12 cells assessed as reduction in triglyceride level at 0.5 uM incubated for 24 hrs; assay type: functional, cell-based
[9] = tested on: Mus musculus; assay: Antioxidant activity against MCD diet-induced oxidative stress in C57Bl/6 mouse model of NAFLD assessed as increase in SOD level in liver at 0.5 to 2 mg/kg,ip administrated for 4 weeks; assay type: functional, organism-based; conditions: dose 0.5-2 mg/kg
[10] = tested on: Mus musculus; assay: Antioxidant activity against MCD diet-induced oxidative stress in C57Bl/6 mouse model of NAFLD assessed as reduction of liver macrophage infiltration at 0.5 to 2 mg/kg,ip administrated for 4 weeks by immunostaining assay; assay type: functional, organism-based; conditions: dose 0.5-2 mg/kg
[11] = Toxicity in C57BL/6 mouse assessed as histopathological change in heart at 2 mg/kg,ip qd administrated for 4 weeks by hematoxylin and eosin staining based assay; assay type: organism-based; conditions: in vivo, 672 h
[12] = Acute toxicity in C57BL/6 mouse assessed as histopathological change in spleen at 20 mg/kg,ip qd administrated for 3 consecutive days and measured on day 4 by hematoxylin and eosin staining based assay; assay type: organism-based; conditions: in vivo
[13] = tested on: Mus musculus; assay: Antioxidant activity against MCD diet-induced oxidative stress in C57Bl/6 mouse model of NAFLD assessed as reduction of hepatic steatosis in liver at ip administrated for 4 weeks by hematoxylin and eosin staining based assay; assay type: functional, organism-based
[14] = Cardiotoxicity in zebrafish at 10 uM observed at 72 hrs post fertilization; assay type: toxicity, Danio rerio
[15] = Acute toxicity in C57BL/6 mouse assessed as histopathological change in liver at 20 mg/kg,ip qd administrated for 3 consecutive days and measured on day 4 by hematoxylin and eosin staining based assay; assay type: organism-based; conditions: in vivo
[16] = tested on: Mus musculus; assay: Antioxidant activity against MCD diet-induced oxidative stress in C57Bl/6 mouse model of NAFLD assessed as reduction of serum LDL-C level at ip administrated for 4 weeks; assay type: functional, organism-based
[17] = tested on: Mus musculus; assay: Antioxidant activity against MCD diet-induced oxidative stress in C57Bl/6 mouse model of NAFLD assessed as increase in GSH level in liver at 0.5 to 2 mg/kg,ip administrated for 4 weeks; assay type: functional, organism-based; conditions: dose 0.5-2 mg/kg
[18] = Toxicity in C57BL/6 mouse assessed as histopathological change in lung at 2 mg/kg,ip qd administrated for 4 weeks by hematoxylin and eosin staining based assay; assay type: organism-based; conditions: in vivo, 672 h
[19] = tested on: AML12; assay: Antioxidant activity against free fatty acid induced oxidative stress in mouse AML12 cells assessed as downregulation of Keap1 protein expression level at 0.125 to 0.5 uM incubated for 24 hrs by immunofluorescence staining analysis; assay type: functional, cell-based; conditions: dose 0.125-0.5 µM
[20] = tested on: AML12; assay: Antioxidant activity against free fatty acid induced oxidative stress in mouse AML12 cells assessed as decrease in ROS level at 0.125 to 0.5 uM incubated for 24 hrs; assay type: functional, cell-based; conditions: dose 0.125-0.5 µM
[21] = biological target: T1, Protein cereblon/Kelch-like ECH-associated protein 1 (Mus musculus) (UniProt Q9Z2X8+Q8C7D2); assay: PROTAC activity at CRBN/Keap1 in mouse AML12 cells assessed as degradation of Keap1 protein level at 1 uM preincubated with proteasome inhibitor, MG-132 followed by compound addition and incubated for 24 hrs by Western blotting analysis; assay type: cell-based
[22] = tested on: Mus musculus; assay: Antioxidant activity against MCD diet-induced oxidative stress in C57Bl/6 mouse model of NAFLD assessed as downregulation of liver Keap1 protein expression level at 0.5 to 2 mg/kg,ip administrated for 4 weeks by immunoblot analysis; assay type: functional, organism-based; conditions: dose 0.5-2 mg/kg
[23] = tested on: AML12; assay: Antioxidant activity against free fatty acid induced oxidative stress in mouse AML12 cells assessed as increase in SOD level at 0.125 to 0.5 uM; assay type: functional, cell-based; conditions: dose 0.125-0.5 µM
[24] = tested on: AML12; assay: Cytotoxicity against mouse AML12 cells at 0.5 uM incubated for 24 hrs by MTT assay; assay type: toxicity, cell-based; conditions: aml12, 24 h
[25] = biological target: Protein cereblon/Kelch-like ECH-associated protein 1 (Mus musculus, UniProt Q8C7D2+Q9Z2X8); assay: PROTAC activity at CRBN/Keap1 in mouse AML12 cells assessed as reduction of Keap1 protein incubated for 24 hrs by Western blotting analysis; assay type: cell-based
[26] = biological target: T1, Protein cereblon/Kelch-like ECH-associated protein 1 (Mus musculus); assay: PROTAC activity at CRBN/Keap1 in mouse AML12 cells assessed as degradation of Keap1 protein at 1 uM incubated for 24 hrs by Western blotting analysis; assay type: cell-based
[27] = Acute toxicity in C57BL/6 mouse assessed as histopathological change in lung at 20 mg/kg,ip qd administrated for 3 consecutive days and measured on day 4 by hematoxylin and eosin staining based assay; assay type: organism-based; conditions: in vivo
[28] = tested on: Mus musculus; assay: Antioxidant activity against MCD diet-induced oxidative stress in C57Bl/6 mouse model of NAFLD assessed as reduction of morphological change in liver at ip administrated for 4 weeks by hematoxylin and eosin staining based assay; assay type: functional, organism-based
[29] = biological target: Protein cereblon/Kelch-like ECH-associated protein 1 (Mus musculus, UniProt Q9Z2X8+Q8C7D2); assay: PROTAC activity at CRBN/Keap1 in mouse AML12 cells assessed as degradation of Keap1 protein at 0.5 to 2 uM incubated for 48 hrs by Western blotting analysis; assay type: cell-based
[30] = Cardiotoxicity in zebrafish at 10 uM observed at 48 hrs post fertilization; assay type: toxicity, Danio rerio

T1 sequence (Q8C7D2 whole entry, looked up): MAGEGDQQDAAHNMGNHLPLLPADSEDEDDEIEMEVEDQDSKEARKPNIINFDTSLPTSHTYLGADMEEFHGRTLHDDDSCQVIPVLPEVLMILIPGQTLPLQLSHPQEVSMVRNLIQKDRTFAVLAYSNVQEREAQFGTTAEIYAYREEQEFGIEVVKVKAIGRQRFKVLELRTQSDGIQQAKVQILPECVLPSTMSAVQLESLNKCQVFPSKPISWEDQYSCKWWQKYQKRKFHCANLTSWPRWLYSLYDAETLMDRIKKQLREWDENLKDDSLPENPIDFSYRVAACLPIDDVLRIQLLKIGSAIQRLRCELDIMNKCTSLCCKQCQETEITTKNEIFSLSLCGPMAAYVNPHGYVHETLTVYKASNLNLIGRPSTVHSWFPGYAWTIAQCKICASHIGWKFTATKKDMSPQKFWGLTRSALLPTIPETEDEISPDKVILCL
T1 sequence (Q9Z2X8 whole entry, looked up): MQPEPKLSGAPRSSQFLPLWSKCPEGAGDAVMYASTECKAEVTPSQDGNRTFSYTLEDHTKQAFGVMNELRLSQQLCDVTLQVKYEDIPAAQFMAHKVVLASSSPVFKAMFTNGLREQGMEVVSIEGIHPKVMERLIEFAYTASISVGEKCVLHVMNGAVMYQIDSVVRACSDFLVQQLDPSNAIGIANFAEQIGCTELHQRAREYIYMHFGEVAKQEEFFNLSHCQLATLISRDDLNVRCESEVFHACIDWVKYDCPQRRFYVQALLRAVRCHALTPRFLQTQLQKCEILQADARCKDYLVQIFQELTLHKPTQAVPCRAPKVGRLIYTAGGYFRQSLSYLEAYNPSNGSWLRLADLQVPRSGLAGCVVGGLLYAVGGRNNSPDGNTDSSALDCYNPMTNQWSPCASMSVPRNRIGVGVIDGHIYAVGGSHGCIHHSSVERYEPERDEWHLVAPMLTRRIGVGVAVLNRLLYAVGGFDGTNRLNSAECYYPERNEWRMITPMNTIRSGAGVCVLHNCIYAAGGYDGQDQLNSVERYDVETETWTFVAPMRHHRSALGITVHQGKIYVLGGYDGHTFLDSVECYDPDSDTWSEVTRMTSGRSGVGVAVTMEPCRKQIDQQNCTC
Chain of Protein cereblon/Kelch-like ECH-associated protein 1 (Mus musculus, UniProt Q9Z2X8+Q8C7D2) (Q9Z2X8 whole entry): as the sequence (Q9Z2X8 whole entry, looked up) above
Chain of Protein cereblon/Kelch-like ECH-associated protein 1 (Mus musculus, UniProt Q9Z2X8+Q8C7D2) (Q8C7D2 whole entry): as the sequence (Q8C7D2 whole entry, looked up) above
Chain of Protein cereblon/Kelch-like ECH-associated protein 1 (Mus musculus, UniProt Q8C7D2+Q9Z2X8) (Q9Z2X8 whole entry): as the sequence (Q9Z2X8 whole entry, looked up) above
Chain of Protein cereblon/Kelch-like ECH-associated protein 1 (Mus musculus, UniProt Q8C7D2+Q9Z2X8) (Q8C7D2 whole entry): as the sequence (Q8C7D2 whole entry, looked up) above

## CC1(C)CC[C@]2(C(=O)NCCCCCNc3cccc4c3C(=O)N(C3CCC(=O)NC3=O)C4=O)CC[C@]3(C)[C@H](C(=O)C=C4C5(C)C=C(C#N)C(=O)C(C)(C)[C@@H]5CC[C@]43C)[C@@H]2C1 (single isomer, unassigned)
[1]
  Activity: Active
[2]
  Activity: Non-Toxic
[3]
  Activity: Active
[4]
  Activity: Active
[5]
  Activity: Non-Toxic
[6]
  Activity: Active
[7]
  Activity: Dose-Dependent Effect
[8]
  Activity: Active
[9]
  Activity: Active
[10]
  Activity: Active
[11]
  Activity: Non-Toxic
[12]
  Activity: Non-Toxic
[13]
  Activity: Dose-Dependent Effect
[14]
  Activity: Non-Toxic
[15]
  Activity: Non-Toxic
[16]
  Activity: Dose-Dependent Effect
[17]
  Activity: Active
[18]
  Activity: Non-Toxic
[19]
  Activity: Active
[20]
  Activity: Active
[21]
  Activity: inactive
[22]
  Activity: Dose-Dependent Effect
[23]
  Activity: Active
[24]
  Activity: Non-Toxic
[25]
  IC50: 18.2 µM
[26]
  Activity: Active
[27]
  Activity: Non-Toxic
[28]
  Activity: Dose-Dependent Effect
[29]
  DC50: 0.21 µM
[30]
  Activity: Non-Toxic
